Measurements taken from patent US20180117150A1, “Combination Therapies for CD38-Positive Hematological Malignances with ANTI-CD38 Antibodies and Cyclophosphamide” (Janssen Biotech, Inc., priority 2016, published 2018).
Where two headings read alike, the source gives them in different places.

Assays:
MM1S cells [1] = experiment: Daratumumab-mediated MM1S tumor cell clearance in co-culture with conditioned THP-1 macrophages (ADCP assay); format: cell-based; conditions: for daratumumab-mediated tumor cell killing by macrophages (% specific MM1S cell clearance): THP-1 conditioned 48 hours with media of treated MM1S, 1 μg/ml daratumumab, E:T 2:1, 18 hours, FIG. 4
Protocol: FIG. 4 illustrates the level of MM1S tumor cell clearance in co-culture of MM1S cells and THP-1 macrophages. Prior to initiation of co-cultures, THP-1 cells were cultured 48 hours in conditioned media generated from untreated MM1S tumor cells or MM1S cells treated with lenalidomide (FIG. 4A), bortezomib (FIG. 4B) or cyclophosphamide (CTX) alone or in combination with bortezomib or lenalidomide (FIG. 4C). MM1S cells were stained with calcein and incubated with daratumumab or IgG1 isotype control ([…]) and co-culture with THP-1 cells at a 2:1 effector to target ratio for 18 hours. Cell frequency was determined using the Accuri C6 (Right). The % specific cell clearance was calculated by the following formula:
100−100*(The frequency of calcein stained MM1S cells in the presence of 1 μg/ml daratumumab/
The frequency of calcein stained MM1S cells in the presence of Isotype control).
Co-cultures of MM1S and THP-1 cells were incubated in the presence of cytochalasin to assess if daratumumab mediated MM1S killing by ADCP. […] FIG. 5 illustrates the level of daratumumab-mediated tumor cell clearance in co-cultures of MM1S and THP-1 cells. Prior to initiation of co-cultures, THP-1 cells were cultured 48 hours in conditioned media generated from untreated MM1S tumor cells or MM1S cells treated with lenalidomide (FIG. 5A) or cyclophosphamide alone or in combination with lenalidomide or bortezomib (FIG. 5B) in the absence or presence of 1 μg/ml cytochalasin D. The % specific cell clearance was calculated by the following formula: […]

MM1S cells [2] = format: cell-based, human; conditions: for proportion of tumour cell clearance accounted for by ADCP: ± 1 μg/ml cytochalasin D, n=1
Protocol: Antibody Dependant cellular phagocytosis (ADCP): To determine the number of macrophages per sample, 50 μl of 5×10^6 cells/mL concentration of MC isolated from PB and BM were diluted using 150 μl FACS buffer. Based on forward and side scatter profiles, the total number of macrophages were determined by timed acquisition events per unit volume using an Accuri™ C6. […] Cells were washed, incubated with mouse anti-human CD45-APC (BD Biosciences, San Jose, CA) and mouse anti-human CD14-PerCP-Cy5.5 (Miltenyi Biotech, Cologne, Germany) for 15 mins, then washed and re-suspended in 200 μl FACS buffer for sample acquisition. Macrophage and MM1S cells were gated using CFSE+ and CD45+CD14+ cells gating. Cell frequency was determined using the BD Canto IITM flow cytometer. Antibody-dependent phagocytosis was assessed and quanti?ed as follows: Phagocytosis was quanti?ed by frequency of remaining target cells (CFSE positive) with and without Ab treatment or isotype control. […] ADCP mediated clearance was calculated using the following formula: 100-100*(Proportion of live Dara-treated MM1S cells in untreated macrophage co-culture/ Proportion of live Dara-treated MM1S cells in CytoD conditioned macrophage co-culture).

[3] = system: CD47 on CD45-CD19-CD138+ plasma cells; conditions: 24 hour treatment vs baseline
Protocol: Ethics: Pre-screened newly diagnosed MM patients were enrolled into the sub-clinical study by informed consent according to predetermined protocols and standard operating procedures for sample draw and included extraction of relevant details from medical records.
Samples Isolation: Isolation of mononuclear cells (MC) from PB and BM aspirates were performed by layering 3mL EDTA-anti-coagulated sample over 3mL endotoxin-free Ficoll Plaque density-gradient medium (GE Healthcare, Little Chalfont, United Kingdom) in 15-mL Falcon tubes (Sarstedt, North Rhine-Westphalia, Niimbrecht, Germany), and centrifuged at 420 relative centrifugal force (RCF) for 22 minutes at 4° C. without braking. The “buffy coat” layer was isolated and washed twice with Fluorescence-activated cell sorting (FACS buffer) [2% foetal calf serum (Lonza, Basel, Switzerland), PBS and 0.05% NaN3 (Sigma-Aldrich, St. Louis, Mo., USA)]. […] Cells were counted using a haemocytometer and 5×10^5 cells per sample were stained for phenotypic characterisation by flow cytometry
Characterisation Studies: Plasma cells: Cell surface expression of CD38, CD47, CD319 (SLAMF7), B-cell maturation antigen (BCMA), MIC A/B, Programmed death-ligand (PDL) 1, PDL2, CD54, CD11a and CD48 were analysed on CD45-CD19-CD138+ Plasma cells by flow cytometry. […]

[4] = system: CD38 expression on multiple myeloma cells (MM1S); experiment: Flow cytometry of cell surface CD38 expression on treated MM1S cells; conditions: 48 hours after treatment, CTX 2.5, 5, 10 μM, CTX 10 μM with Bort 1 nM or Len 1 μM, FIG. 1
Protocol: (§1) Cells: The multiple myeloma cell line, MM1S, was sub-cultured in RPMI 1640 media supplemented with 10% FBS and 50 IU/ml penicillin and 50 μg/ml Streptomycin. […] THP-1 cells were sub-cultured in RPMI 1640 media supplemented with 10% FBS and 50 IU/ml Penicillin and 50 μg/ml streptomycin. Cells were plated at a cell density of 2×10^5 cells/ml for experiments. […] Fresh media was added and the cells were further incubated for 24 hours after collecting the conditioned media. […] All antibodies were purchased from BD Pharmingen™ unless otherwise stated. Cells were stained with anti-CD38 (APC-conjugated) and anti-CD47 (FITC-conjugated, eBiosciences) antibodies and the level of expression of CD38 and CD47 was assessed. Sytox advanced reagents were used to assess cell death. Cells were analysed by flow cytometry. Sytox positive cells were excluded from analysis. The mean fluorescent intensity was calculated by expressing the fluorescent intensity of each sample relative to the cell size. […] FcγRI and FcγRlla/b expression was assessed by flow cytometry 48 hours later using anti-FcγRI (APC-conjugated) and anti- FcγRIIa/b (PE-conjugated) antibodies. The mean fluorescent intensity was calculated by expressing the fluorescent intensity of each sample relative to the cell size and subtracting the values for the isotype control/unstained samples.

[5] = system: CD47 expression on multiple myeloma cells (MM1S); experiment: Flow cytometry of cell surface CD47 expression on treated MM1S cells; conditions: 24 hours after treatment, CTX 2.5, 5, 10 μM, CTX 10 μM with Bort 1 nM or Len 1 μM, FIG. 2C
Protocol: as §1

[6] = system: CD64 (FcγRI) expression on THP-1 macrophages; experiment: CD64 (FcγRI) expression on THP-1 macrophages incubated in conditioned media from treated MM1S cells; conditions: THP-1 cells, 48 hours in conditioned media from treated MM1S cells; FIG. 3A
Protocol: as §1

[7] = system: CD32 (FcγRIIa/b) expression on THP-1 macrophages; experiment: CD32 (FcγRIIa/b) expression on THP-1 macrophages incubated in conditioned media from treated MM1S cells; conditions: THP-1 cells, 48 hours in conditioned media from treated MM1S cells; FIG. 3B
Protocol: as §1

## C=C1[C@@H](C)[C@H]2[C@H](Cc3ccccc3)NC(=O)[C@]23[C@H](OC(C)=O)/C=C/[C@@](C)(O)C(=O)[C@@H](C)C/C=C/[C@H]3[C@@H]1O [Cytochalasin D]
MM1S cells [1]; 1 μg/ml cytochalasin D in MM1S/THP-1 co-cultures, FIG. 5
  daratumumab-mediated tumor cell clearance in the presence of cytochalasin D: reduced

## CC(C)C[C@H](NC(=O)[C@H](Cc1ccccc1)NC(=O)c1cnccn1)B(O)O [bortezomib]
MM1S cells [1]
  daratumumab-mediated tumor cell killing by macrophages (% specific MM1S cell clearance): potentiated

## O=P1(N(CCCl)CCCl)NCCCO1 (centres unmarked) [cyclophosphamide]
MM1S cells [1]
  daratumumab-mediated tumor cell killing by macrophages (% specific MM1S cell clearance): potentiated
MM1S cells [1]; listed as Cyclophosphamide
  daratumumab-mediated tumor cell killing by macrophages (% specific MM1S cell clearance): augmented
MM1S cells [1]; concluded from cytochalasin D inhibition, FIG. 5
  mechanism of the potentiation of anti-myeloma activity of daratumumab: dependent on macrophage mediated ADCP
MM1S cells [2]; BM macrophages 24 hours after treatment with cyclophosphamide, FIG. 8C
  proportion of tumour cell clearance accounted for by ADCP: > 25%
MM1S cells [2]; patient macrophages 24 hours after treatment vs prior to treatment
  tumour cytotoxicity by macrophages in co-culture of PB or BM-derived macrophages and multiple myeloma cells: augmented
[3]; BM, n=3, P=0.0555, FIG. 6B
  CD47 surface expression (MFI) on plasma cells, bone marrow: decreased
[3]; PB, n=3, cyclophosphamide 150-300 mg/m^2, FIG. 6A
  CD47 surface expression (MFI) on plasma cells, peripheral blood: decreased
[4]
  mean fluorescence intensity (MFI) of cell surface CD38 expression: induced
[5]
  mean fluorescence intensity (MFI) of cell surface CD47 expression: reduced
[6]
  MFI of cell surface CD64 (FcγRI) expression: induced
[7]
  MFI of cell surface CD32 (FcγRIIa/b) expression: induced

## Nc1cccc2c1CN(C1CCC(=O)NC1=O)C2=O (centres unmarked) [lenalidomide]
MM1S cells [1]
  daratumumab-mediated tumor cell killing by macrophages (% specific MM1S cell clearance): potentiated
MM1S cells [1]; listed as lenalodomide
  daratumumab-mediated tumor cell killing by macrophages (% specific MM1S cell clearance): augmented

## daratumumab
MM1S cells [2]; BM macrophages prior to treatment, FIG. 8C
  proportion of tumour cell clearance accounted for by ADCP: > 15%
MM1S cells [2]; patient had received Daratumumab 16 mg/kg infusion, FIG. 8C
  difference between Dara and Isotype within the ADCP assay: minimal difference
